{
  "source": "patent US20070010548A1",
  "about": "“Compounds having inhibitive activity of phosphatidylinositol 3-kinase and methods of use thereof” (ZENTARIS GmbH, priority 2003, published 2007)",
  "key": {"[1]": {"test_system": "phospho-Akt in MDA-MB-468 cells", "test": "Phospho-Akt levels in MDA-MB-468 cells (PathScan phospho-Akt ELISA / immunoblotting)", "type": "cell-based, human", "conditions": "50 μM, 4 hours, serum-starved MDA-MB-468 cells; DMSO alone = 100%", "description": "Because phosphorylation and activation of PKB/Akt is dependent on PI 3-K activity, PI 3-K inhibitors decrease the cellular levels of phospho-Akt. MDA-MB-468 cells show constitutively high levels of phospho-Akt as a result of abnormal activation of PI 3-K signaling.\nThe effect of treatment with PI 3-K inhibitors on phospho-Akt levels in these cells was determined as follows. Cells were plated into 6-well cell culture dishes at a density of 5×10^5 cells per well in RMPI media containing 10% fetal calf serum and 2 mM L-glutamine. Twenty-four hours later, media was removed and replaced with serum-free RMPI containing 2 mM L-glutamine. The cells were serum-starved overnight.\nCompounds were diluted into serum-free media to a final concentration of 50 μM and added to the cells. The cells were incubated in the presence of PI 3-K inhibitors for 4 hours. Phospho-Akt levels were determined using one of the following methods.\nTo determine phospho-Akt levels using immunoblotting, cells were washed twice with PBS and lysed in ice-cold lysis buffer (1% Triton X-100, 50 mM Hepes pH 7.4, 150 mM NaCl, 1.5mM MgCl2, 1 mM EGTA, 100 mM NaF, 10 mM Sodium Pyrophosphate, 1 mM Na(subscript: 3)VO(subscript: 4), 10% glycerol, InmM phenylmethylsulfonyl fluoride, and 10 ug/ml aprotifin). Total protein concentration was determined using a BCA assay. 30ug of total cell lysate protein was diluted into Laemmli sample buffer and loaded onto a 10% acrylamide gel, subjected to SDS-PAGE, and transferred to a PVDF membrane. The membrane was blocked with 5% bovine serum albumin and then incubated at 4° C. overnight with antibody. The membrane was washed in TBS-T (10 mM Tris-HCl pH 7.4, 150 mM NaCl, and 0.1% Tween-20) and incubated with HRP-conjugated antibody (diluted in 5% milk in TBS-T) at room temperature for 1 h. The membrane was washed extensively and the proteins were visualized by chemiluminscent detection. The compounds effects on phospho-Akt levels were observed as relative differences in the amount of phospho-Akt detected by immunoblotting.\nEffects on cellular levels of phospho-Akt following treatment with PI 3-K inhibitors were quantified using the PathScan phospho-Akt ELISA (Cell Signaling Technologies)., a sandwich ELISA for detection of phospho-Akt. The kit was used according to the manufacturer protocol. Absorbance at 450 nm was determined for each sample and used directly as equivalent of phospho-Akt levels.\nPercent decreases in phospho-Akt levels were determined by normalizing relative to blank samples (0%/O) and control samples treated with DMSO alone (1 00%)."}, "SKOV3 cells": {"test_system": "SKOV3 cells", "test": "MTT cell proliferation/viability assay, SKOV3 ovarian cancer cells", "type": "cell-based", "conditions": "Homo sapiens", "description": "The ovarian cancer cell line SKOV3 is not altered in PI 3-K signaling and should be less sensitive to the anti-proliferative effects produced by treatment with PI 3-K inhibitors, while the OVCAR3 cell line, which is altered in PI 3-K signaling, via amplification of PI 3-K activity, should be sensitive. SKOV3 cells were seeded in 96-well cell culture plates (Greiner) at a density of 20,000 cells per well in McCoys 5A media (GibcoBRL) with 10% fetal calf serum and 20 mM L-glutamine. OVCAR3 cells were seeded at a density of 15,000 cells per well in RPMI 1640 media (GibcoBRL) containing 20 mM 1-glutamine, 0.01 ng/ml bovine insulin, 10 mM Hepes pH 7.4, 1 mM sodium pyruvate, 2.5 g/L glucose, and 20% fetal calf serum. After 24 hours, compounds were added to cell media to a final concentration of 1 μM, and the cells were grown in the presence of the compounds for 48 hours, in media containing 0.5% fetal calf serum. Viability was determined using a MTT cell proliferation assay (R and D Systems) and comparison to DMSO alone controls (100% viability). Compounds which result in reduced viability may act either by inhibiting cell proliferation or by inducing apoptosis (programmed cell death).\nMany of these also show similar selective effects on cell growth. Table 2 summarizes the results of two separate cell proliferation experiments for selected compounds of the present invention."}, "[2]": {"conditions": "SK-OV-3, 48 hours, MTT, DMSO alone controls = 100% viability, Trial 1, read-out: Trial 1 SKOV-3 (viability)"}, "[3]": {"conditions": "SK-OV-3, 48 hours, MTT, DMSO alone controls = 100% viability, Trial 2, read-out: Trial 2 SKOV-3 (viability)"}, "[4]": {"conditions": "SK-OV-3, average of Trial 1 and Trial 2, 48 hours, read-out: Average SKOV3 (viability)"}},
  "note": "Like-named read-outs stand apart in the source and are kept apart here.",
  "data": [
    {"smiles": "CC1(C)CC(=O)C2=C(C1)Nc1c(c(C(C)(C)C)nn1C(C)(C)C)C2c1ccc(OCc2ccccc2)c(OCc2ccccc2)c1", "note": "(stereo not shown) [Compound 963985]", "values": [
      {"measurement": "Approx. % decrease phospho-Akt relative to controls", "setting": "[1]", "value": 50, "unit": "%"}
    ]},
    {"smiles": "Cc1ccc(C2C3=C(CC(C)(C)CC3=O)Nc3c2c(C(C)(C)C)nn3-c2ccc(C)cc2)cc1", "note": "(stereo not shown) [Compound 964028, 3-t-butyl-4-(4-methylphenyl)-7,7-dimethyl-1-(4-methylphenyl)-4,7,8,9-tetrahydro-1H-pyrazolo[3,4-b]quinolin-5(6H)-one]", "values": [
      {"measurement": "viability at 1 µM", "setting": "SKOV3 cells; [2]", "value": 100, "unit": "%"},
      {"measurement": "viability at 1 µM", "setting": "SKOV3 cells; [3]", "value": 99.1, "unit": "%"},
      {"measurement": "viability at 1 µM", "setting": "SKOV3 cells; [4]", "value": 99.5, "unit": "%"},
      {"measurement": "Approx. % decrease phospho-Akt relative to controls", "setting": "[1]", "value": 40, "unit": "%"}
    ]},
    {"smiles": "COc1ccc(-n2nc(C(C)(C)C)c3c2NC2=C(C(=O)CC(C)(C)C2)C3c2ccccc2Cl)cc1", "note": "(stereo not shown) [Compound 964076, 3-t-butyl-4-(2-chlorophenyl)-7,7-dimethyl-1-(4-methoxyphenyl)-4,7,8,9-tetrahydro-1H-pyrazolo[3,4-b]quinolin-5(6H)-one]", "values": [
      {"measurement": "viability at 1 µM", "setting": "SKOV3 cells; [2]", "value": 100, "unit": "%"},
      {"measurement": "viability at 1 µM", "setting": "SKOV3 cells; [3]", "value": 92.9, "unit": "%"},
      {"measurement": "viability at 1 µM", "setting": "SKOV3 cells; [4]", "value": 96.5, "unit": "%"},
      {"measurement": "Approx. % decrease phospho-Akt relative to controls", "setting": "[1]", "value": 60, "unit": "%"}
    ]},
    {"smiles": "COc1ccc(OC)c(C2C3=C(CC(C)(C)CC3=O)Nc3c2c(C(C)(C)C)nn3-c2ccc(C)cc2C)c1", "note": "(stereo not shown) [Compound 964232]", "values": [
      {"measurement": "viability at 1 µM", "setting": "SKOV3 cells; [2]", "value": 98, "unit": "%"},
      {"measurement": "viability at 1 µM", "setting": "SKOV3 cells; [3]", "value": 100, "unit": "%"},
      {"measurement": "viability at 1 µM", "setting": "SKOV3 cells; [4]", "value": 99, "unit": "%"},
      {"measurement": "Approx. % decrease phospho-Akt relative to controls", "setting": "[1]", "value": 50, "unit": "%"}
    ]},
    {"smiles": "COc1ccccc1C1C2=C(CC(C)(C)CC2=O)Nc2c1c(C(C)(C)C)nn2-c1ccc(Cl)c(C)c1", "note": "(stereo not shown) [Compound 964247]", "values": [
      {"measurement": "viability at 1 µM", "setting": "SKOV3 cells; [2]", "value": 100, "unit": "%"},
      {"measurement": "viability at 1 µM", "setting": "SKOV3 cells; [3]", "value": 100, "unit": "%"},
      {"measurement": "viability at 1 µM", "setting": "SKOV3 cells; [4]", "value": 100, "unit": "%"},
      {"measurement": "Approx. % decrease phospho-Akt relative to controls", "setting": "[1]", "value": 30, "unit": "%"}
    ]},
    {"smiles": "CC1(C)CC(=O)C2=C(C1)Nc1c(c(C(C)(C)C)nn1-c1ccc(Cl)c(Cl)c1)C2c1cccc(OCc2ccccc2)c1", "note": "(stereo not shown) [Compound 964260]", "values": [
      {"measurement": "viability at 1 µM", "setting": "SKOV3 cells; [2]", "value": 93, "unit": "%"},
      {"measurement": "viability at 1 µM", "setting": "SKOV3 cells; [3]", "value": 85, "unit": "%"},
      {"measurement": "viability at 1 µM", "setting": "SKOV3 cells; [4]", "value": 89, "unit": "%"},
      {"measurement": "Approx. % decrease phospho-Akt relative to controls", "setting": "[1]", "value": 40, "unit": "%"}
    ]},
    {"smiles": "CC1(C)CC(=O)C2=C(C1)Nc1c(c(-c3ccccc3)nn1-c1cccc(F)c1)C2c1ccc(C(F)(F)F)cc1", "note": "(stereo not shown) [Compound 964661]", "values": [
      {"measurement": "viability at 1 µM", "setting": "SKOV3 cells; [2]", "value": 99, "unit": "%"},
      {"measurement": "viability at 1 µM", "setting": "SKOV3 cells; [3]", "value": 77.1, "unit": "%"},
      {"measurement": "viability at 1 µM", "setting": "SKOV3 cells; [4]", "value": 88, "unit": "%"},
      {"measurement": "Approx. % decrease phospho-Akt relative to controls", "setting": "[1]", "value": 40, "unit": "%"}
    ]}
  ]
}
